Test results as given in patent US20230174507A1, “IMIDAZOLE 3-OXIDE DERIVATIVE BASED ACSS2 INHIBITORS AND METHODS OF USE THEREOF” (METABOMED LTD., priority 2020, published 2023).

Tests used:
human ACSS2 protein = target: T1, human ACSS2 protein (Homo sapiens, UniProt Q9NR19); experiment: ACSS2 cell-free activity assay (pyrophosphatase-coupled, Biomol green); details: 10 nM human ACSS2, 90 minutes at 37 C, absorbance at 620 nm; read-out: ACSS2 Biochemical IC50
T1 construct: purchased OriGene Technologies, Inc
Summary of the method: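 10 nM human ACSS2 incubated 90 min at 37 C with compound, 300 μM ATP, 10 μM CoA, 5 mM NaAc in pH 7.5 Hepes buffer with 0.5 U/ml pyrophosphatase. Released phosphate detected with Biomol Green at 620 nm; IC50 by non-linear regression constrained to 0% and 100%.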

human ACSS1 protein = target: T2, human ACSS1 protein (Homo sapiens, UniProt Q9NUB1); experiment: ACSS1 cell-free activity assay (pyrophosphatase-coupled, Biomol green); type: biochemical; details: 5 nM human ACSS1, 30 minutes at room temperature, absorbance at 620 nm; for IC50: read-out: ACSS1 Biochemical IC50
T2 construct: purchased MyBioSource
T2 sequence (Q9NUB1 38-689): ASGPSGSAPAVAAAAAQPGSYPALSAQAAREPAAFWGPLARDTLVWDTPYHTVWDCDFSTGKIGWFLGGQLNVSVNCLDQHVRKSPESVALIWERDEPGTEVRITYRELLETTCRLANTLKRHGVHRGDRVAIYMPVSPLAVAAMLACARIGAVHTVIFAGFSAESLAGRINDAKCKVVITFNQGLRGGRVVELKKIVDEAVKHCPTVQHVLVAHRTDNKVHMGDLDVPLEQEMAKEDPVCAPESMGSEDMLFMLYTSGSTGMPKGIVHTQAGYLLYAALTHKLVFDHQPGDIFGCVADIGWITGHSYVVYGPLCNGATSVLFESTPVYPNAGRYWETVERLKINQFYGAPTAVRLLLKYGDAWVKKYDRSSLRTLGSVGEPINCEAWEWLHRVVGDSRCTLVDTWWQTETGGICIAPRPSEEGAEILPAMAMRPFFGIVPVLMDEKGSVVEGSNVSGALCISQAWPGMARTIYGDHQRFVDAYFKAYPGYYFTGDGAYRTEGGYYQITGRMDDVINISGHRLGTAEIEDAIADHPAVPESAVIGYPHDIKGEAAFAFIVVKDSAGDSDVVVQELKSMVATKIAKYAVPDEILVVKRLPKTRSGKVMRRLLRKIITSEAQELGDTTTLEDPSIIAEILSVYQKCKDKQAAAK
Summary of the method: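 5 nM human ACSS1 incubated 30 min at RT with compound in pH 7.5 Hepes buffer with 15 μM CoA, 5 mM acetate, 300 μM ATP, 2 mM MgCl2 and pyrophosphatase. Released phosphate detected with Biomol Green (30 min), absorbance 620 nm. IC50 from constrained non-linear regression.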

[1] = target: T3, ACSS2 in MDA-MB-468 cells (Homo sapiens, UniProt Q9NR19); experiment: Cellular fatty-acid IC50: 13C-acetate incorporation into fatty acids (palmitate), LC-MS; type: cell-based; details: hypoxic conditions (1% O2), 75% charcoal stripped serum, 5 hours, 13C-acetate into palmitate, read-out: Cellular Fatty-acid IC50 High Serum MDA468
T3 construct: endogenous in cells; host or cells: MDA-MB-468 cells, hypoxia (1% O2)
Method: Cellular Fatty-Acid IC50 Determination:
The cellular activity of ACSS2 was measured in MDA-MB-468 cells under hypoxic conditions by tracing the incorporation of labelled carbons from ^13C-acetate into newly synthesized fatty acids. The assay was performed using 75% charcoal stripped serum (high serum conditions).
MDA-MB-468 cells were seeded in 12-well plates (0.35×10^6 cells per well) in plating medium (Dulbecco's Modified Eagle Medium containing 25 mM D-glucose, 1 mM sodium pyruvate, 10% v/v fetal bovine serum, and 2 mM glutamine) and incubated for 24 hours under hypoxic conditions (1% O2).
The next day, tracing medium containing DMEM (01-057-1A) containing 75% charcoal stripped serum (Biological industries 04-201-1A), 3.5 μg/mL Biotin (Sigma-Aldrich B4639), 1 mM Pyruvate, 5.5 mM Glucose, 0.65 mM Glutamine and 0.5 mM ^13C-Acetate (Sigma-Aldrich #282014) with serial dilutions of the compounds in the range of 0.000512-1000 nM were prepared. The plating medium was replaced with 1 mL tracing medium plus compounds and the cells were incubated for 5 hours under hypoxic conditions (1% O2). Plating medium in control wells (without cells or without compounds) was replaced with 1 mL tracing medium containing 0.01% v/v DMSO.
The level of ^13C-acetate incorporation into fatty acids (palmitate) was measured by LC-MS analysis and IC50 as described below:
Sample Preparation for LC-MS
• a) Cells were washed twice with cold phosphate buffered saline (PBS), scraped into 0.5 mL EDTA pH 8.0, and transferred into 1.1 mL V-shaped HPLC glass tubes. • b) The cell suspensions were centrifuged for 5 minutes at 400×g, 4° C. and the supernatants were removed. • c) Cell pellets were frozen at −80° C.
• d) Cell pellets were resuspended in 0.2 mL of 80% v/v ethanol in water containing 0.02 M NaOH in 1.1 ml glass (v-bottom) HPLC vials. • e) The vials were closed tight and incubated at 66° C. for 60 minutes. • f) Acetonitrile containing 2% v/v formic acid (150 μL) was added to each vial and the mixtures were transferred to Eppendorf tubes for centrifugation at 17 000×g for 20 minutes. • g) Supernatants were transferred to LC-MS vials.
The relative palmitate concentration was measured by LC-MS in reconstructed selected ion monitoring (RSIM) mode and negative ion mode. Samples were analyzed on a Phenomenex Kinetex 2.6 μm XB-C18 150×2.1 mm column at 45° C. (0.4 mL/minute flow rate) using: • a) A gradient from 15% A/85% C to 100% C for 0 to 2 minutes (A: water containing 5% v/v acetonitrile, 10 mM ammonium acetate, and 10 mM acetic acid; C: a mixture of 50% v/v acetonitrile and 50% v/v methanol). • b) Isocratic flow (100% C) for 2 to 5 minutes. • c) Equilibration in isocratic conditions (15% A/85% C) for 5 to 8 minutes.
Palmitate was eluted at approximately 3.4 minutes.
The percent inhibition was calculated relative to the sample without compound and after background deduction. IC50 values were calculated using non-linear regression curve fit analysis with 0% and 100% constraints (CDD Vault, Collaborative Drug Discovery, Inc. or GraphPad Prism).
The inhibitory activities of each compound against ACSS2 in MDA-MB-468 cells under high serum conditions, as determined by ^13C-acetate incorporation into fatty acids (palmitate), are presented in Table 2.

T3 sequence (Q9NR19 whole entry): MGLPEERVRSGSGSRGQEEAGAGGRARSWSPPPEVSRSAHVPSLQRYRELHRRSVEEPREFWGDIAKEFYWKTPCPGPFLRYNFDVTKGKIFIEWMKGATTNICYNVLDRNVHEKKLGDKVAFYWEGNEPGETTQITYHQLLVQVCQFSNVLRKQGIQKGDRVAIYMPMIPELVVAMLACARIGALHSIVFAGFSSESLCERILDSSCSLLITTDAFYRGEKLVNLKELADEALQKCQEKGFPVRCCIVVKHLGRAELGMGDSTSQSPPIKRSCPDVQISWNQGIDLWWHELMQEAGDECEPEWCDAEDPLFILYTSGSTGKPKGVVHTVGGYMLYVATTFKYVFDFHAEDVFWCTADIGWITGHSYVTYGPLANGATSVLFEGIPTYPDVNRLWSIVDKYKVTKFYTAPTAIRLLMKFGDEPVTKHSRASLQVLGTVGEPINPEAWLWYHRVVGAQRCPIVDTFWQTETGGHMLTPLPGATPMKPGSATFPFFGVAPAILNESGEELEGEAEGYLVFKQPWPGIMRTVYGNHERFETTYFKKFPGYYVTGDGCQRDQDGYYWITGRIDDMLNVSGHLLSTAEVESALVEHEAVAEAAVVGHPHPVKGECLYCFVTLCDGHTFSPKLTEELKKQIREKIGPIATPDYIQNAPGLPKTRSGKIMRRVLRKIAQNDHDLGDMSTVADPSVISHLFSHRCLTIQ
T1 sequence (Q9NR19 whole entry): as above

| IC50 (human ACSS2 protein) [nM] | ACSS1 Biochemical IC50 (nM) (human ACSS1 protein) | IC50 [1] [nM] | IC50 (human ACSS1 protein) [nM] | Compound |
| --- | --- | --- | --- | --- |
| < 1 | Inactive | > 50 | – | COc1cc(Cl)c(-c2[nH]c(C)c(C(=O)Nc3cccc(C(F)(F)C4CC4)c3)[n+]2[O-])cc1-c1c(C)cccc1C [Compound 198, 2-(4-chloro-6-methoxy-2′,6′-dimethyl-[1,1′-biphenyl]-3-yl)-4-((3-(cyclopropyldifluoromethyl)phenyl)carbamoyl)-5-methyl-1H-imidazole 3-oxide] |
| < 1 | – | 20 to 50 | > 30 | CCC(F)(F)c1cccc(NC(=O)c2c(C)[nH]c(-c3cc(CCN4CCOCC4)c(OC)c(-c4c(C)cccc4C)c3)[n+]2[O-])c1 [Compound 192, 4-((3-(1,1-difluoropropyl)phenyl)carbamoyl)-2-(6-methoxy-2′,6′-dimethyl-5-(2-morpholinoethyl)-[1,1′-biphenyl]-3-yl)-5-methyl-1H-imidazole 3-oxide] |
| < 1 | Inactive | > 50 | – | COc1cc(F)c(-c2[nH]c(C)c(C(=O)Nc3cccc(C(F)(F)C4CC4)c3)[n+]2[O-])nc1-c1c(C)cccc1C [Compound 202, 4-((3-(cyclopropyldifluoromethyl)phenyl)carbamoyl)-2-(6-(2,6-dimethylphenyl)-3-fluoro-5-methoxypyridin-2-yl)-5-methyl-1H-imidazole 3-oxide] |
| < 1 | Inactive | < 20 | – | CNC(=O)c1cccc(NC(=O)c2c(C)[nH]c(-c3ccc(OC)c(-c4c(C)cccc4C)c3)[n+]2[O-])c1 [Compound 146, 2-(6-methoxy-2′,6′-dimethyl-[1,1′-biphenyl]-3-yl)-5-methyl-4-((3-(methylcarbamoyl)phenyl)carbamoyl)-1H-imidazole 3-oxide] |
| < 1 | Inactive | 20 to 50 | – | CCC(F)(F)c1cccc(NC(=O)c2c(C)[nH]c(-c3ccc(OC(F)F)c(-c4c(C)cccc4C)c3)[n+]2[O-])c1 [Compound 103, 2-(6-(difluoromethoxy)-2′,6′-dimethyl-[1,1′-biphenyl]-3-yl)-4-((3-(1,1-difluoropropyl)phenyl)carbamoyl)-5-methyl-1H-imidazole 3-oxide] |
| < 1 | Inactive | > 50 | – | COc1cc(F)c(-c2[nH]c(C)c(C(=O)Nc3cccc(C(F)(F)C4CC4)c3)[n+]2[O-])cc1-c1c(C)cccc1C [Compound 137] |
| < 1 | Inactive | > 50 | – | CC(=O)c1cc(-c2c(C)cccc2C)cc(-c2[nH]c(C)c(C(=O)Nc3cccc(C(F)(F)C4CC4)c3)[n+]2[O-])c1 [Compound 142, 2-(5-acetyl-2′,6′-dimethyl-[1,1′-biphenyl]-3-yl)-4-((3-(cyclopropyldifluoromethyl)phenyl)carbamoyl)-5-methyl-1H-imidazole 3-oxide] |
| < 1 | Inactive | 20 to 50 | – | COc1ccc(-c2[nH]c(C)c(C(=O)Nc3cccc(-c4cn(C)nn4)c3)[n+]2[O-])cc1-c1c(C)cccc1C [Compound 199, 2-(6-methoxy-2′,6′-dimethyl-[1,1′-biphenyl]-3-yl)-5-methyl-4-((3-(1-methyl-1H-1,2,3-triazol-4-yl)phenyl)carbamoyl)-1H-imidazole 3-oxide] |
| < 1 | Inactive | > 50 | – | Cc1cccc(C)c1-c1cc(OCCN2CCCC2)cc(-c2[nH]c(C)c(C(=O)Nc3cccc(C(F)(F)C4CC4)c3)[n+]2[O-])c1 [Compound 183, 4-((3-(cyclopropyldifluoromethyl)phenyl)carbamoyl)-2-(2′,6′-dimethyl-5-(2-(pyrrolidin-1-yl)ethoxy)-[1,1′-biphenyl]-3-yl)-5-methyl-1H-imidazole 3-oxide] |
| < 1 | Inactive | < 20 | – | Cc1cncc(C)c1-c1cc(-c2[nH]c(C)c(C(=O)Nc3cccc(C(F)(F)C4CC4)c3)[n+]2[O-])ccc1OC(F)F [Compound 115, 4-((3-(cyclopropyldifluoromethyl)phenyl)carbamoyl)-2-(4-(difluoromethoxy)-3-(3,5-dimethylpyridin-4-yl)phenyl)-5-methyl-1H-imidazole 3-oxide] |
| < 1 | Inactive | < 20 | – | CNC(=S)c1cccc(NC(=O)c2c(C)[nH]c(-c3ccc(OC)c(-c4c(C)cccc4C)c3)[n+]2[O-])c1 [Compound 196, 2-(6-methoxy-2′,6′-dimethyl-[1,1′-biphenyl]-3-yl)-5-methyl-4-((3-(methylcarbamothioyl)phenyl)carbamoyl)-1H-imidazole 3-oxide] |
| < 1 | Inactive | > 50 | – | CCC(F)(F)c1cccc(NC(=O)c2c(C)[nH]c(-c3cc(-c4c(C)cccc4C)c(OC)cc3N)[n+]2[O-])c1 [Compound 124] |
| < 1 | – | < 20 | > 30 | CCC(F)(F)c1cccc(NC(=O)c2c(C)[nH]c(-c3cccc(-c4c(C)ncnc4C)c3)[n+]2[O-])c1 [Compound 112, 4-((3-(1,1-difluoropropyl)phenyl)carbamoyl)-2-(3-(4,6-dimethylpyrimidin-5-yl)phenyl)-5-methyl-1H-imidazole 3-oxide] |
| < 1 | Inactive | < 20 | – | CNC(=O)c1cccc(NC(=O)c2c(C)[nH]c(-c3cc(-c4c(C)cccc4C)cc(N(C)C)c3)[n+]2[O-])c1 [Compound 182, 2-(5-(dimethylamino)-2′,6′-dimethyl-[1,1′-biphenyl]-3-yl)-5-methyl-4-((3-(methylcarbamoyl)phenyl)carbamoyl)-1H-imidazole 3-oxide] |
